In patent US9404192B2, “Highly stable electrolytic water with reduced NMR half line width” (priority 2007, dated 2016):

Tested on: Reconstructed Human Epidermids (RHEs)
Test: trans-epithelial electrical resistance (TEER) testing
Assay type: cell-based
Details: SDS 0.1% solution on RHE, FIG. 3
Method: The formulations described in Tables B-F were tested for their effect on trans-epithelial electrical resistance according to the following procedure.
1 ml of saline solution is directly applied on the tissue placed in a 6 well plate containing 4 ml of saline solution as well.
The instrument Millicell-ERS (range 0-20 kΩ) is placed with the two electrodes in the two chambers and the measure is recorded directly and reported in the laboratory note book.
Five measurements for each tissue have been done: because of the variability within the tissues the measurement done at t=0 has been taken as basal value and reference of each single tissue.
At the arrival the tissues have been placed in 6 well plates with maintenance medium (SkinEthic) for 2 hours before the TEER measurements.
The basal TEER value is measured on all the tissue as described in the method.
The tissues have been recovered in maintenance medium (1 ml) and the test items have been applied at the dose of 50 μl.
Tissues have been finally incubated at 37° C. in 5% CO2 incubator.
The tissues have been rinsed with saline solution and the second TEER measurement, corresponding to the 24 h exposure, has been performed.
The RHEs have been recovered in fresh maintenance medium (1 ml) for a 24 h post incubation time. […]

Q: Which TEER does the source give for CCCCCCCCCCCCOS(=O)(=O)[O-].[Na+] [sodium dodecyl sulphate] here?
A: Its TEER is “strong decrease of TEER”.
